Data reported in patent publication US5512573A, “Use of phthaloylhydrazide derivatives as anti-hypoxic and defensive agents” (priority 1993, dated 1996).

What was measured:
[1] = system: female pregnant rats; settings: 60 mg/kg i.p.
Description: Teratogenic tests and embryotoxicity tests were performed on 58 female pregnant rats. A single dose was injected intraperitoneally on days 1, 3, 7, 10, 14 and 17 of gestation (60 mg/kg). The rats were decapitated on day 21 of the pregnancy and the uteruses and fetuses were examined.

[2] = system: lymphocytes, macrophages and fibroblasts; settings: 24-hour in vitro, 0.01 to 0.8 mmols/liter
Description: The cells used as subject matter included lymphocytes, macrophages and fibroblasts. Viability following a 24-hour in vitro exposure with 5-aminophthaloylhydrazide in concentrations of 0.01 to 0.8 mmols/liter was determined by means of protein incorporation and/or synthesis.

[3] = system: male mice; settings: 40 to 80 mg/kg
Description: To study the pharmacological properties on the central nervous system, doses of 40 to 80 mg per kilogram of body weight were used. The choice of doses was based on safety criteria governing the use of medicines.
The neuropharmacological effects were studied in male mice of undefined strain which had reached sexual maturity. The mice, weighing 18 to 20 g, were given a solution of the drug intraabdominally. The neuropharmacological effects were studied on the basis of changes in the natural orientation reflex, in induced aggressiveness, and in muscle tone. The change in the natural sense of orientation was recorded according to the current method. To study the effect of the drug on induced aggressiveness, the electrical stimulation method (pain caused by electric current) was used.
The change in muscle tone was measured by means of the "pivot pin" method.

[4] = system: Hexenalum-induced sleep; settings: 10 to 30 mg/kg, 15 min before Hexenalum 80 mg/kg
Description: The effect of the drug on the length of Hexenalum-induced anesthesia was studied, i.e., the drug was administered in doses of 10 to 30 mg per kilogram of body weight, 15 minutes before the administration of the Hexenalum solution in a dose of 80 mg/kg.

[5] = system: generalized psoriasis
[6] = physchem

With `Nc1cccc2c(=O)[nH][nH]c(=O)c12` [5-aminophthaloylhydrazide, 5-amino-2,3-dihydrophthalazine-1,2 dione] the “abnormality of the fetuses” value ([1]; single dose on days 1, 3, 7, 10, 14 and 17 of gestation) was “No abnormality of the fetuses was observed”, the “site of uterine attachment, number, weight and mortality of the fetuses” value ([1]; vs control group) was “did not differ from those obtained for the control group” and the “toxicity (viability by protein incorporation and/or synthesis)” value [2] was “No toxicity was observed for any of the dosage levels tested”. For the same molecule, the pain threshold [3] was “nor did it cause changes in muscle tone or modifications in the pain threshold”, the natural orientation reflex ([3]; intraabdominal) was “did not suppress the natural orientation reflex” and the muscle tone ([3]; pivot pin method) was “nor did it cause changes in muscle tone”. For the same molecule, the “extension of Hexenalum-induced sleep” value [4] was “did not cause a noteworthy extension of the Hexenalum-induced sleep”, the clinical symptoms ([5]; 20 mg/kg for 10 days) was “elimination of the itching and a lessening of the skin symptoms” and the skin clearance ([5]; after a 30-day treatment) was “the skin was completely clear”. The “number of neutrophils in the epidermal cells” value ([5]; biopsy samples) was “considerable drop in the number of neutrophils in the epidermal cells”, the remission period ([5]; human, in vivo) was 8 months and the “skin symptoms after topical application” value ([5]; solution of the drug in 15% DMSO) was “led quickly to the disappearance of the skin symptoms, including the pustules”. For the same molecule, the pKa [6] was 6.3.
